# Test results: PMC3816974 (Bioorganic & medicinal chemistry, 2013)
# Test system: Mtb
# Assay: not given
# Details: reported values; cited from earlier work
row,Compound,reported MIC (HTS results)
1,Fc1ccc(Nc2nc(-c3ccccn3)cs2)cc1 [Compound 12],2 µM
2,FC(F)(F)c1ccccc1Nc1nc(-c2ccccn2)cs1 [Compound 13],< 0.3 µM
3,Clc1ccc(Nc2nc(-c3ccccn3)cs2)nc1 [Compound 18],0.35 µM
4,Cc1cccc(Nc2nc(-c3ccccn3)cs2)n1 [Compound 19],0.35 µM

# Test system: M. tuberculosis H37Rv
# Assay: M. tuberculosis H37Rv MIC assay
# Assay type: cell-based, Mycobacterium tuberculosis
# Details: not given
row,Compound,"MIC, μM (7H9-glucose)"
1,2-[N-(Benzoyl)amino]-4-(thiazol-2-yl)thiazole [Compound 92],>25 µM

# Same assay, conditions: M. tuberculosis H37Rv
row,Compound,antitubercular activity (in words)
1,2-[N-(Benzoyl)amino]-4-(thiazol-2-yl)thiazole [Compound 92],inactive
2,"O=C(Nc1nc(-c2ccccc2)cs1)c1ccccc1 [Compound 90, 2-[N-(Benzoyl)amino]-4-(phenyl)thiazole]",obliterates all activity
3,"O=C(Nc1nc(-c2cnccn2)cs1)c1ccccc1 [Compound 91, 2-[N-(Benzoyl)amino]-4-(pyrazin-2-yl)thiazole]",inactive

# Same assay, conditions: M. tuberculosis H37Rv; GAST medium (glycerol and alanine); […]
row,Compound,"MIC, μM (GAST)"
1,2-[N-(Benzoyl)amino]-4-(thiazol-2-yl)thiazole [Compound 92],≥25 µM

# Same assay, conditions: Mycobacterium tuberculosis, H37RV, read-out: MIC, μM (7H9-butyrate)
row,Compound,MIC
1,Cc1ccccc1C(=O)Nc1nc(-c2ccccn2)cs1 [Compound 36],0.19 to 0.39 µM
2,Cc1cccc(C(=O)Nc2nc(-c3ccccn3)cs2)c1 [Compound 37],0.049 to 0.098 µM
3,COc1ccccc1C(=O)Nc1nc(-c2ccccn2)cs1 [Compound 42],3.1 to 6.3 µM
4,COc1ccc(C(=O)Nc2nc(-c3ccccn3)cs2)cc1 [Compound 44],0.19 to 0.39 µM
5,O=C(Nc1nc(-c2ccccn2)cs1)c1ccccc1O [Compound 45],1.6 to 3.1 µM
6,CC(=O)c1ccc(C(=O)Nc2nc(-c3ccccn3)cs2)cc1 [Compound 48],0.19 to 0.39 µM
7,O=C(Nc1nc(-c2ccccn2)cs1)c1ccccc1Cl [Compound 54],0.19 to 0.39 µM
8,O=C(Nc1nc(-c2ccccn2)cs1)c1c(F)cccc1Cl [Compound 66],0.39 to 0.78 µM
9,O=C(Nc1nc(-c2ccccn2)cs1)c1ccccn1 [Compound 68],3.1 to 6.3 µM

# Same assay, conditions: Mycobacterium tuberculosis, H37RV, read-out: MIC, μM (7H9-glucose)
row,Compound,MIC
1,FC(F)(F)c1ccccc1Nc1nc(-c2ccccn2)cs1 [Compound 13],12 to 25 µM
2,c1ccc(Nc2nc(-c3ccccn3)cs2)nc1 [Compound 17],0.78 to 1.6 µM
3,"CCCC(=O)Nc1nc(-c2ccccn2)cs1 [Compound 21, N-[4-(2-pyridinyl)-1,3-thiazol-2-yl)butyramide]",12 to 25 µM
4,O=C(Nc1nc(-c2ccccn2)cs1)C1CC1 [Compound 25],12 to 25 µM
5,CC1CC1C(=O)Nc1nc(-c2ccccn2)cs1 (stereo not shown) [Compound 29],6.3 to 12.5 µM
6,O=C(Nc1nc(-c2ccccn2)cs1)c1ccco1 [Compound 30],3.1 to 6.3 µM
7,O=C(Nc1nc(-c2ccccn2)cs1)c1ccoc1 [Compound 31],3.1 to 6.3 µM
8,O=C(Nc1nc(-c2ccccn2)cs1)c1cccs1 [Compound 32],1.6 to 3.1 µM
9,O=C(Nc1nc(-c2ccccn2)cs1)c1ccsc1 [Compound 33],1.6 to 3.1 µM
10,Cc1cccc(C(=O)Nc2nc(-c3ccccn3)cs2)c1 [Compound 37],0.19 to 0.39 µM
11,O=C(Nc1nc(-c2ccccn2)cs1)c1cccc(OCc2ccccc2)c1 [Compound 40],0.39 to 0.78 µM
12,O=C(Nc1nc(-c2ccccn2)cs1)c1ccc(OCc2ccccc2)cc1 [Compound 41],0.19 to 0.39 µM
13,COc1cccc(C(=O)Nc2nc(-c3ccccn3)cs2)c1 [Compound 43],0.19 to 0.39 µM
14,O=C(Nc1nc(-c2ccccn2)cs1)c1ccccc1O [Compound 45],1.6 to 3.1 µM
15,O=C(Nc1nc(-c2ccccn2)cs1)c1ccccc1[N+](=O)[O-] [Compound 49],1.6 to 3.1 µM
16,O=C(Nc1nc(-c2ccccn2)cs1)c1cccc([N+](=O)[O-])c1 [Compound 50],1.6 to 3.1 µM
17,O=C(Nc1nc(-c2ccccn2)cs1)c1ccccc1Br [Compound 51],0.39 to 0.78 µM
18,O=C(Nc1nc(-c2ccccn2)cs1)c1cccc(Br)c1 [Compound 52],0.098 to 0.19 µM
19,O=C(Nc1nc(-c2ccccn2)cs1)c1ccccc1Cl [Compound 54],0.39 to 0.78 µM
20,"O=C(Nc1nc(-c2ccccn2)cs1)c1cccc(Cl)c1 [Compound 55, N-(3-Chlorobenzoyl)-4-(2-pyridinyl)-1,3-thiazol-2-amine]",0.19 to 0.39 µM
21,O=C(Nc1nc(-c2ccccn2)cs1)c1ccccc1F [Compound 57],1.6 to 3.1 µM
22,O=C(Nc1nc(-c2ccccn2)cs1)c1cccc(F)c1 [Compound 58],0.19 to 0.39 µM
23,O=C(Nc1nc(-c2ccccn2)cs1)c1ccc(F)cc1F [Compound 61],0.39 to 0.78 µM
24,O=C(Nc1nc(-c2ccccn2)cs1)c1ccc(F)c(F)c1 [Compound 64],1.6 to 3.1 µM
25,O=C(Nc1nc(-c2ccccn2)cs1)c1cccnc1Cl [Compound 67],0.39 to 0.78 µM
26,O=C(Nc1nc(-c2ccccn2)cs1)c1ccncc1 [Compound 70],1.6 to 3.1 µM

# Same assay, conditions: relative to 1
row,Compound,fold better MIC than the corresponding N-phenyl 1
1,"O=C(Nc1nc(-c2ccccn2)cs1)c1ccccc1 [Compound 35, 2-[N-(Benzoyl)amino]-4-(pyridin-2-yl)thiazole]",64 fold

# Same assay, conditions: relative to 35
Compound,fold increase in potency relative to benzoyl 35,fold loss of potency relative to the parent thiazole 35
Cc1cccc(C(=O)Nc2nc(-c3ccccn3)cs2)c1 [Compound 37],2- to 4 fold,–
"O=C(Nc1cc(-c2ccccn2)cs1)c1ccccc1 [Compound 75, 2-[N-(Benzoyl)amino]-4-(pyridin-2-yl)thiophene]",–,≥ 64 fold
"O=C(Nc1nc(-c2ccccn2)c[nH]1)c1ccccc1 [Compound 78, 2-[N-(Benzoyl)amino]-4-(pyridin-2-yl)imidazole]",–,16- to 64 fold
"O=C(Nc1nc(-c2ccccn2)co1)c1ccccc1 [Compound 82, 2-[N-(Benzoyl)amino]-4-(pyridin-2-yl)oxazole]",–,16- to 64 fold

# Same assay, conditions: relative to 69
row,Compound,fold improvement of activity over nicotinoyl 69
1,O=C(Nc1nc(-c2ccccn2)cs1)c1cccnc1Cl [Compound 67],8- to 16 fold

# Same assay, conditions: relative to oxazole 82
row,Compound,regain in potency relative to 82
1,"O=C(Nc1nnc(-c2ccccn2)o1)c1ccccc1F [Compound 83, 2-[N-(2-Fluorobenzoyl)amino]-5-(pyridin-2-yl)-1,3,4-oxadiazole]",2–4

# Test system: Vero cells
# Assay: Vero cell cytotoxicity MTT assay
# Assay type: cell-based, green monkey
# Details: 72 h, concentration that inhibited 50% viability
row,Compound,"EC50, μM"
1,O=C(Nc1nc(-c2ccccn2)cs1)c1ccccc1OCc1ccccc1 [Compound 39],insol.
